According to patent publication US11214594B2, “Antimicrobial peptide having synergistic antibacterial effect with antibiotics on multidrug resistant bacteria, and use thereof” (priority 2016, dated 2022):
Where a SMILES comes first, the peptide text is derived from it. [ ]: non-standard residue; d: D form.

What was measured:
[1] = test system: B. subtilis; experiment: microbe, parasite or virus in culture; assay type: cell-based, Bacillus subtilis
Procedure, shortened: (§1)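 Each strain is brought to 2×10^6 CFU in nutrient-sufficient Mueller-Hinton medium and dispensed into wells. Peptide solutions, stepwise diluted 2:1 in the same medium, are then added. The minimal concentration preventing growth gives the MIC.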

[2] = test system: MDRAB 12035; experiment: MIC of antimicrobial peptide during combined treatment with antibiotic; assay type: cell-based, Acinetobacter baumannii
Procedure, shortened: (§2)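 Strains in MH medium at 2×10^6 CFU/ml were mixed with peptide diluted stepwise (2:1) from its MIC, then antibiotic dilutions in MH medium were added to give the antibiotic MIC. The reversed set-up, peptide titrated against fixed antibiotic, gave the peptide MIC.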

[3] = test system: A. baumannii; experiment: as above; assay type: cell-based, Acinetobacter baumannii
Procedure, shortened: as §2

[4] = test system: A. baumannii; experiment: MIC of antibiotic during combined treatment with antimicrobial peptide; assay type: cell-based, Acinetobacter baumannii; conditions: for Antibiotic MIC, Erythromycin / Antibiotic MIC, Linezolid / Antibiotic MIC, Vancomycin: A. baumannii
Procedure, shortened: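 Checkerboard-type MIC of peptide–antibiotic mixtures in MH medium: the antibiotic was serially diluted in MH medium and added to wells, then the reversed arrangement was also tested.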

[5] = test system: E. coli; experiment: microbe, parasite or virus in culture; assay type: cell-based, Escherichia coli; conditions: 16 h
Procedure, shortened: as §1

[6] = erythromycin 4 μg/ml (Conc./MIC 1/8)
[7] = erythromycin 8 μg/ml (Conc./MIC 1/4)
[8] = erythromycin 16 μg/ml (Conc./MIC 1/2)
[9] = erythromycin 32 μg/ml (Conc./MIC 1)
[10] = vancomycin 512 μg/ml (Conc./MIC 1/2)
[11] = vancomycin 1024 μg/ml (Conc./MIC 1)
[12] = combined with peptide at 1 μg/ml
[13] = combined with peptide at 2 μg/ml
[14] = combined with peptide at 4 μg/ml
[15] = combined with peptide at 6 μg/ml
[16] = combined with peptide at 8 μg/ml
[17] = combined with peptide at 16 μg/ml
[18] = combined with peptide at 32 μg/ml
[19] = combined with peptide at 64 μg/ml

CC[C@H](C)[C@H](NC(=O)[C@H](CCCCN)NC(=O)[C@H](Cc1c[nH]c2ccccc12)NC(=O)[C@@H](N)CCCNC(=N)N)C(=O)N[C@@H](Cc1ccccc1)C(=O)N[C@@H](CCCCN)C(=O)N[C@@H](CCCCN)C(=O)N[C@H](C(=O)N[C@H](CCCCN)C(=O)N[C@@H](CCCCN)C(=O)N[C@@H](CC(C)C)C(=O)N[C@@H](CC(C)C)C(=O)N[C@@H](Cc1c[nH]cn1)C(=O)N[C@@H](CCC(=O)O)C(=O)N[C@@H](C)C(=O)N[C@@H](CCCCN)C(=O)N[C@@H](CCCCN)C(=O)N[C@@H](Cc1c[nH]c2ccccc12)C(N)=O)[C@@H](C)CC [PapMA-20, RWK IFK KIk KLL HEA KKW-NH2] (H-RWKIFKKI[dK]KLLHEAKKW-NH2; N-terminus assumed)
higher level than the PapMA-1 peptide: Synergistic effect of antibacterial activity with existing antibiotics compared with PapMA-1 ([4]; A. baumannii and MDRAB 12035)
1 µg/mL: Peptide MIC during treatment with linezolid ([2]; linezolid […] (Conc./MIC 1/2)) | Peptide MIC during treatment with vancomycin [2, 11] | Peptide MIC during treatment with antibiotic ([3]; linezolid […] (Conc./MIC 1/2)) | Antibiotic MIC, Erythromycin [4, 15]
4 µg/mL: Peptide MIC during treatment with erythromycin [2, 6] | Peptide MIC during treatment with erythromycin [2, 7] | Peptide MIC during treatment with linezolid ([2]; linezolid 64 μg/ml (Conc./MIC 1/8)) | Peptide MIC during treatment with vancomycin ([2]; vancomycin […] (Conc./MIC 1/8)) | Peptide MIC during treatment with antibiotic [3, 6] | Peptide MIC during treatment with antibiotic [3, 7] | Peptide MIC during treatment with antibiotic ([3]; linezolid 32 μg/ml (Conc./MIC 1/8)) | Peptide MIC during treatment with antibiotic ([3]; vancomycin […] (Conc./MIC 1/8))
8 µg/mL: Antibiotic MIC, Linezolid [4, 15] | Antibiotic MIC, Vancomycin [4, 15]
0.25 µg/mL: Peptide MIC during treatment with antibiotic [3, 10]
>128 µg/mL: Minimal inhibitory concentration MIC [1] | Antibiotic MIC, Linezolid [4, 12] | Antibiotic MIC, Vancomycin [4, 12] | Antibiotic MIC, Vancomycin [4, 13]
0.125 µg/mL: Antibiotic MIC, Erythromycin [4, 16]
32 µg/mL: Antibiotic MIC, Erythromycin [4, 12] | Antibiotic MIC, Vancomycin [4, 14]
0.5 µg/mL: Peptide MIC during treatment with antibiotic ([3]; vancomycin […] (Conc./MIC 1/4))
64 µg/mL: Antibiotic MIC, Linezolid [4, 13]
0 µg/mL: Peptide MIC during treatment with erythromycin [2, 9] | Peptide MIC during treatment with linezolid ([2]; linezolid 512 μg/ml (Conc./MIC 1)) | Peptide MIC during treatment with antibiotic [3, 9] | Peptide MIC during treatment with antibiotic ([3]; linezolid […] (Conc./MIC 1)) | Peptide MIC during treatment with antibiotic [3, 11] | Antibiotic MIC, Erythromycin [4, 17] | Antibiotic MIC, Linezolid [4, 17] | Antibiotic MIC, Vancomycin [4, 17] | Antibiotic MIC, Erythromycin [4, 18] | Antibiotic MIC, Linezolid [4, 18] | Antibiotic MIC, Vancomycin [4, 18] | Antibiotic MIC, Erythromycin [4, 19] | Antibiotic MIC, Linezolid [4, 19] | Antibiotic MIC, Vancomycin [4, 19]
2 µg/mL: Peptide MIC during treatment with erythromycin [2, 8] | Peptide MIC during treatment with linezolid ([2]; linezolid […] (Conc./MIC 1/4)) | Peptide MIC during treatment with vancomycin [2, 10] | Peptide MIC during treatment with vancomycin ([2]; vancomycin […] (Conc./MIC 1/4)) | Peptide MIC during treatment with antibiotic [3, 8] | Peptide MIC during treatment with antibiotic ([3]; linezolid 64 μg/ml (Conc./MIC 1/4)) | Antibiotic MIC, Erythromycin [4, 14] | Antibiotic MIC, Linezolid [4, 16] | Antibiotic MIC, Vancomycin [4, 16]
16 µg/mL: Antibiotic MIC, Erythromycin [4, 13] | Antibiotic MIC, Linezolid [4, 14] | Minimal inhibitory concentration MIC [5]
